For test [1], the target named is T1, Recombinant human AOC2 protein (Homo sapiens, UniProt O75106).
T1 construct: Eli Lilly (provided, not a catalogue product)
T1 sequence (O75106 1-756): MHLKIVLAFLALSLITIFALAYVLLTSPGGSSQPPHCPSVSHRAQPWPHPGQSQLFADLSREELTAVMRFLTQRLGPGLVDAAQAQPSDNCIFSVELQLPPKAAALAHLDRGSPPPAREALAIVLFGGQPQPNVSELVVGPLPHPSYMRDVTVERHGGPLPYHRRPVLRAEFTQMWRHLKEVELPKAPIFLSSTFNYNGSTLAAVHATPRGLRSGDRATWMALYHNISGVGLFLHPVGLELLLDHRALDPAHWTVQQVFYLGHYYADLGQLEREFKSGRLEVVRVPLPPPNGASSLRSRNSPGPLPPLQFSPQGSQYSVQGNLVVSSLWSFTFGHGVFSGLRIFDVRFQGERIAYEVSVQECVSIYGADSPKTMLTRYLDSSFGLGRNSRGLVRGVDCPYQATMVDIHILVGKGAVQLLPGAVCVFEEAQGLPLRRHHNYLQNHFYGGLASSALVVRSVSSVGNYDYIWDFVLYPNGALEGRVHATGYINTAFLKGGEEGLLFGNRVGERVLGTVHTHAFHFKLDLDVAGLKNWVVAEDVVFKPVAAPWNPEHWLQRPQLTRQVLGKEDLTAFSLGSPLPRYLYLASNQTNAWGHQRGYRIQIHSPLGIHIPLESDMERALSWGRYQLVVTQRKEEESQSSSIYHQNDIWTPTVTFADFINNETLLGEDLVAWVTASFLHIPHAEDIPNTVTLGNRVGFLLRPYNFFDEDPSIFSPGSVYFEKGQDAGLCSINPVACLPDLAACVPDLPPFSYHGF
Description: Inhibitory activity on AOC2. The class given is biochemical. The method, then:
Recombinant human AOC2 protein (provided by Eli Lilly). Other reagents are the same as those in Biological Test Example 1. The final concentration of test compound in 10 μL reaction system was 100 μM to 5 nM when AOC2 was detected, while other reaction conditions were the same as those in Biological Test Example 1. Data analysis and IC50 calculation method were the same as those in Biological Test Example 1.

A further test has as its target T2, Recombinant human MAO-B (Homo sapiens, UniProt P27338).
T2 construct: purchased Sigma M7441
T2 sequence (P27338 1-520): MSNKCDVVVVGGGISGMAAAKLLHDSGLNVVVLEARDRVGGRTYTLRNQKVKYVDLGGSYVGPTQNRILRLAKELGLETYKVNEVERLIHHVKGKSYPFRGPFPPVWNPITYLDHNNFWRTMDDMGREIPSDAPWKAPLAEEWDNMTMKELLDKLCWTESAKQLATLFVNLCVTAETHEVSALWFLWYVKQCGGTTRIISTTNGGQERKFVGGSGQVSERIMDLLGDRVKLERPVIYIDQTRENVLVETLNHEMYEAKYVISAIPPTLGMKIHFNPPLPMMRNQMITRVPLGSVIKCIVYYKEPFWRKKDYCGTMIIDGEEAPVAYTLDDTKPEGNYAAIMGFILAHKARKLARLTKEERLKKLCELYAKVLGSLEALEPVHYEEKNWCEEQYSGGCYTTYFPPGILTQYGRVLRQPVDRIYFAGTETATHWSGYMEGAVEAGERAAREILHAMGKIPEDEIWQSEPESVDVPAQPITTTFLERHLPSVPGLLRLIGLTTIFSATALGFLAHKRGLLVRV
Description: Inhibitory activity on MAO-B. Format: biochemical. The procedure:
Recombinant human MAO-A and MAO-B protein was purchased from Sigma (M7316, M7441). Other reagents are the same as Biological Test Example 1. The final concentration of test compound in 10 μL reaction system was 100 μM to 5 nM when MAO-A and MAO-B were detected. The final concentrations of MAO-A and MAO-B protein in 10 μL reaction system were 70 nM and 300 nM, respectively, while other reaction conditions were the same as those in Biological Test Example 1. Data analysis and IC50 calculation method were the same as those in Biological Test Example 1.

pIC50: −log10 of the molar value.

The term pIC50 denotes the negative decadic logarithm of the IC50, by convention in mol/L.

Consider `CC1CN(c2ncc(OC/C(=C/F)CN)cn2)CC(C)N1C1COC1` (stereo not shown) [Example 1, (E)-2-(((2-(3,5-dimethyl-4-(oxbutan-3-yl)piperazin-1-yl)pyrimidin-5-yl)oxo)methyl)-3-fluoroprop-2-en-1-amine], for which the results for the pIC50 (in test [1]; at Recombinant human MAO-B) were 6.00 to 7.00 and below 4.70, respectively.

For the compound `COC1CC2CC1CN2c1ncc(OC/C(=C/F)CN)cn1` (stereo not shown) [Example 2], the pIC50 in test [1] was below 6.00; on Recombinant human MAO-B it was below 4.70.

In the case of `NC/C(=C\F)COc1cnc(N2CCC3(CC2)COC3)nc1` [Example 3], the pIC50 in test [1] was below 6.00; at Recombinant human MAO-B, below 4.70.

`NC/C(=C\F)COc1cnc(N2CCN(C3COC3)CC2)nc1` [Example 4, (E)-3-fluoro-2-(((2-(4-(oxbutan-3-yl)piperazin-1-yl)pyrimidin-5-yl)oxo)methyl)prop-2-en-1-amine]: the results for the pIC50 (in test [1]; on Recombinant human MAO-B) were below 6.00 and below 4.70, respectively.

With `CC1(C)CN(C2COC2)CCN1c1ncc(OC/C(=C/F)CN)cn1` [Example 5], the pIC50 was 6.00 to 7.00 in test [1] and below 4.70 on Recombinant human MAO-B.

For `NC/C(=C\F)COc1cnc(N2CC3CCC(C2)N3C2COC2)nc1` [Example 6], the pIC50 is 6.00 to 7.00 in test [1] and below 4.70 on Recombinant human MAO-B.

With `N#Cc1cc(OC/C(=C/F)CN)cnc1N1CCN(C2COC2)CC1` [Example 7], the pIC50 is below 6.00 in test [1] and 4.70 to 5.30 at Recombinant human MAO-B.

Regarding `NC/C(=C/F)COc1cnc(N2CCN(C3COC3)CC2)nc1` [Example 8], the negative logarithm of the IC50 (pIC50) in test [1] was below 6.00; at Recombinant human MAO-B, 4.70 to 5.30.

In the case of `NC/C(=C\F)COc1cnc(N2CCN(c3cnc(N4CCN(C5COC5)CC4)nc3)CC2)nc1` [Example 9], the pIC50 in test [1] is 6.00 to 7.00; on Recombinant human MAO-B it was below 4.70.

`CC1(C)CN(c2ncc(OC/C(=C/F)CN)cn2)CCN1C1COC1` [Example 10]: the pIC50 in test [1] is below 6.00; on Recombinant human MAO-B, below 4.70.

As for `COC1CC2CCC(C1)N2c1ncc(OC/C(=C/F)CN)cn1` (stereo not shown) [Example 12], the pIC50 is below 6.00 in test [1] and below 4.70 on Recombinant human MAO-B.

Source of the values: patent US12258336B2, “Preparation of seimicarbazide-sensitive amine oxidase inhibitor and use thereof” (SHANGHAI ENNOVABIO PHARMACEUTICALS CO., LTD., priority 2018, dated 2025).
